Laboratory results taken from patent US20230331691A1, “TREPROSTINIL DERIVATIVE COMPOUNDS AND METHODS OF USING SAME” (CORSAIR PHARMA, INC., priority 2013, published 2023).

What was measured:
[1] = Human hepatocyte stability assay (Test 4); assay type: in vitro ADME; conditions: cryopreserved human hepatocytes; human hepatocytes 0.5 million cells/mL, 0.5 uM test compound, 37° C., up to 240 minutes; read-out: Test 4 T½
Method: (Test 4) Human hepatocyte stability assay was conducted by incubating 0.5 uM test compound at 37° C. for up to 240 minutes. Cryopreserved human hepatocytes were obtained from Celsis IVT ( Baltimore, Maryland). Cells were thawed according to vendor’s instructions and were suspended in William’s Medium E to 0.5 million cells/mL. Test compounds were spiked into the cell suspension to initiate the reactions. At 0, 10, 30, 60, 120 and 240 min., an aliquot was taken, quenched with internal standard containing stop solution. After incubation, the samples were analyzed by LC-MS/MS. Peak area ratios of analyte to internal standard were used to calculate the intrinsic clearance. The intrinsic clearance (CLint) was determined from the first order elimination constant by non-linear regression. Formation of the active drug Compound A over the time course was also monitored by LC-MS/MS analysis.

[2] = Human liver microsomal stability assay (Test 1); assay type: in vitro ADME; conditions: human liver microsomes, 0.5 uM test compound, 37° C., up to 45 minutes, pH 7.4, NADPH generating system; read-out: Test 1 T½
Method: (§1) (Test 1) Human liver microsomal stability assay was conducted by incubating 0.5 uM test compounds at 37° C. for up to 45 minutes in 50 mM of potassium phosphate buffer (pH 7.4) containing 0.5 mg of microsomal protein and 50 µL of NADPH generating system (7.8 mg of glucose 6-phosphate, 1.7 mg of NADPH and 6 U of glucose 6-phosphate dehydrogenase per mL in 2% w/v of sodium bicarbonate). At 0, 5, 15, 30 and 45 min., an aliquot was taken, quenched with internal standard containing stop solution. No co-factor controls at 45 minutes were also prepared. After incubation, the samples were analyzed by LC-MS/MS. Peak area ratios of analyte to internal standard were used to calculate the intrinsic clearance. The intrinsic clearance (CLint) was determined from the first order elimination constant by non-linear regression. Formation of the active drug Compound A over the time course was also monitored by LC-MS/MS analysis.

[3] = Human plasma stability assay (Test 2); assay type: in vitro ADME; conditions: heparinated human plasma, 0.5 uM test compound, 37° C., up to 120 minutes; read-out: Test 2 T½
Method: (Test 2) Human plasma stability assay was conducted by incubating 0.5 uM test compounds at 37° C. for up to 120 minutes in heparinated human plasma. At 0, 5, 15, 30, 60 and 120 […] min., an aliquot was taken, quenched with internal standard containing stop solution. After incubation, the samples were analyzed by LC-MS/MS. Peak area ratios of analyte to internal standard were used to calculate the half-life. Formation of the active drug Compound A over the time course was also monitored by LC-MS/MS analysis.

[4] = Human skin homogenate stability assay (Test 3); assay type: in vitro ADME; conditions: 0.5 uM test compound, 37° C., up to 45 minutes, pH 7.4, NADPH generating system, read-out: Test 3 T½
Method: as §1, with “3)” for “1)”, “skin homogenate” for “liver microsomal”, “conducted in a similar way as the human liver microsomal stability assay,” for “conducted”, “human skin homogenate” for “microsomal”

[5] = treprostinil as the free acid, cited from earlier work

Structure (SMILES)	half-life at 0.5 uM [1] [min]	half-life at 0.5 uM [2] [min]	half-life at 0.5 uM [3] [min]	half-life at 0.5 uM [4] [min]	absolute oral bioavailability ([5]; oral)	systemic half life ([5]; due to significant metabolism)
CCCCC[C@H](O)CC[C@@H]1[C@H]2Cc3cccc(OCC(=O)NCCO)c3C[C@H]2C[C@H]1O [Compound 7, N-(2-Hydroxy-ethyl)-2-[2-hydroxy-1-(3-hydroxy-octyl)-2,3,3a,4,9,9a-hexahydro-1H-cyclopenta[b]naphthalen-5-yloxy]-acetamide]	15 to 30	15 to 30	> 60	–	–	–
CCCCC[C@H](O)CC[C@@H]1[C@H]2Cc3cccc(OCC(=O)OC4CC5CCC4C5)c3C[C@H]2C[C@H]1O (stereo partly drawn) [Compound 19, [2-Hydroxy-1-(3-hydroxy-octyl)-2,3,3a,4,9,9a-hexahydro-1H-cyclopenta[b]naphthalen-5-yloxy]-acetic acid bicyclo[2.2.1]hept-2-yl ester]	–	< 15	31 to 60	15 to 30	–	–
CCCCC[C@H](O)CC[C@@H]1[C@H]2Cc3cccc(OCC(=O)OC)c3C[C@H]2C[C@H]1OC(=O)CCCC [Compound 22, Pentanoic acid 1-(3-hydroxy-octyl)-5-methoxycarbonylmethoxy-2,3,3a,4,9,9a-hexahydro-1H-cyclopenta[b]naphthalen-2-yl ester]	–	< 15	> 60	> 60	–	–
CCCCC[C@H](O)CC[C@@H]1[C@H]2Cc3cccc(OCC(=O)OC)c3C[C@H]2C[C@H]1OC(=O)OCC [Compound 25, [2-Ethoxycarbonyloxy-1-(3-hydroxy-octyl)-2,3,3a,4,9,9a-hexahydro-1H-cyclopenta[b]naphthalen-5-yloxy]-acetic acid methyl ester]	–	< 15	> 60	31 to 60	–	–
CCCCC[C@H](O)CC[C@@H]1[C@H]2Cc3cccc(OCC(=O)O)c3C[C@H]2C[C@H]1O [treprostinil]	–	–	–	–	less than 10%	very short
CCCCC[C@H](O)CC[C@@H]1[C@H]2Cc3cccc(OCC(=O)NCC4CC4)c3C[C@H]2C[C@H]1O [Compound 2, N-Cyclopropylmethyl-2-[2-hydroxy-1-(3-hydroxy-octyl)-2,3,3a,4,9,9a-hexahydro-1H-cyclopenta[b]naphthalen-5-yloxy]-acetamide]	31 to 60	< 15	> 60	–	–	–
CCCCC[C@H](O)CC[C@@H]1[C@H]2Cc3cccc(OCC(=O)NCC(F)(F)F)c3C[C@H]2C[C@H]1O [Compound 14, 2-[2-Hydroxy-1-(3-hydroxy-octyl)-2,3,3a,4,9,9a-hexahydro-1H-cyclopenta[b]naphthalen-5-yloxy]-N-(2,2,2-trifluoro-ethyl)-acetamide]	< 15	< 15	> 60	> 60	–	–
CCCCC[C@H](O)CC[C@@H]1[C@H]2Cc3cccc(OCC(=O)OC)c3C[C@H]2C[C@H]1OC(C)=O [Compound 26, [2-Acetoxy-1-(3-hydroxy-octyl)-2,3,3a,4,9,9a-hexahydro-1H-cyclopenta[b]naphthalen-5-yloxy]-acetic acid methyl ester]	–	< 15	15 to 30	15 to 30	–	–

The next lines start with results.

half-life at 0.5 uM [1] [min]	half-life at 0.5 uM [2] [min]	half-life at 0.5 uM [3] [min]	half-life at 0.5 uM [4] [min]	Structure (SMILES)	absolute oral bioavailability ([5]; oral)	systemic half life ([5]; due to significant metabolism)
< 15	< 15	> 60	–	CCCCC[C@H](O)CC[C@@H]1[C@H]2Cc3cccc(OCC(=O)N(C)CC(=O)OC)c3C[C@H]2C[C@H]1O [Compound 13, ({2-[2-Hydroxy-1-(3-hydroxy-octyl)-2,3,3a,4,9,9a-hexahydro-1H-cyclopenta[b]naphthalen-5-yloxy]-acetyl}-methyl-amino)-acetic acid methyl ester]	–	–
–	< 15	31 to 60	31 to 60	CCCCC[C@H](O)CC[C@@H]1[C@H]2Cc3cccc(OCC(=O)O[C@@H](C)C(C)C)c3C[C@H]2C[C@H]1O [Compound 63]	–	–
–	< 15	31 to 60	15 to 30	CCCCC[C@H](O)CC[C@@H]1[C@H]2Cc3cccc(OCC(=O)OC(C)C(C)C)c3C[C@H]2C[C@H]1O (stereo partly drawn) [Compound 17, [2-Hydroxy-1-(3-hydroxy-octyl)-2,3,3a,4,9,9a-hexahydro-1H-cyclopenta[b]naphthalen-5-yloxy]-acetic acid 1,2-dimethyl-propyl ester]	–	–
–	< 15	< 15	< 15	CCCCC[C@H](O)CC[C@@H]1[C@H]2Cc3cccc(OCC(=O)OC)c3C[C@H]2C[C@H]1O [Compound 15, [2-Hydroxy-1-(3-hydroxy-octyl)-2,3,3a,4,9,9a-hexahydro-1H-cyclopenta[b]naphthalen-5-yloxy]-acetic acid methyl ester]	–	–
–	< 15	31 to 60	< 15	CCCCC[C@H](O)CC[C@@H]1[C@H]2Cc3cccc(OCC(=O)OC(C)C)c3C[C@H]2C[C@H]1O [Compound 20, [2-Hydroxy-1-(3-hydroxy-octyl)-2,3,3a,4,9,9a-hexahydro-1H-cyclopenta[b]naphthalen-5-yloxy]-acetic acid isopropyl ester]	–	–
